Where a name gives a salt, the structure may show the parent alone. Read-outs that look alike come from different tables or passages of the source.
Assays:
Experiment in all cases: MIC by broth microdilution (antibacterial and synergistic activity)
Format in all cases: cell-based
[1] = system: E. coli 8739 (strain 2, CTX-M15); details: Escherichia coli, read-out: Antibacterial activity, MIC, inhibitor Alone
Protocol: (§1) Compounds of the present invention alone, avibactam (AVI) alone, relebactam (REL) alone, meropenem (MER) alone, imipenem (IMI) alone, and as a combination of compounds of the present invention, or avibactam or relebactam with test antibiotic (meropenem or imipenem) was tested for antimicrobial activity by determining minimum inhibitory concentration (MIC, mg/L) using the broth microdilution method according to the guidelines of the Clinical Laboratories and Standards Institute (“Methods for Dilution Antimicrobial Susceptibility Tests for Bacterial that Grow Aerobically”, Approved standard, 7th ed., Clinical and Laboratories Standards Institute (CLSI) Document M7-A8, Wayne, Pa., USA, 2009). Meropenem or imipenem as a test antibiotic compound was dissolved in DMSO, and then diluted in microbial growth medium (Mueller-Hinton Broth II, cation adjusted) resulting in a final concentration range of 0.031-64 mg/L in serial two-fold dilution. In all cases the final DMSO concentration was less than 0.5%. Bacteria were added to 96-well microtitre plates containing the serial two-fold dilutions of the compounds; the final cell density was approximately 5×10^5 colony forming units/mL (CFU/mL). Plates were incubated at 37° C. for 18-24 hours and read visually. The MIC, i.e. the lowest concentration of the test compound that inhibited visible growth of the bacteria, was recorded. The same assay conditions were used when the compounds of present invention alone, avibactam or relebactam alone (as a control), and as a combination of the present invention each compound, or avibactam or relebactam with test meropenem or imipenem antibiotic compound was tested for minimum inhibitory concentration (MIC, mg/L). While test meropenem or imipenem was serially diluted as described above, a constant concentration of avibactam, or relebactam or the present invention each compound of 4 mg/L was used.
(§2) Bacterial strains that were used to evaluate the antimicrobial activity using the MIC determination included but were not limited to E. coli clinical isolate (strain 1, TEM-1), E. coli 8739 (strain 2, CTX-M15), K. pneumoniae clinical isolate (strain 3, SHV-1), K. pneumoniae 700603 (strain 4, KPC-3, TEM-1), E. cloacae clinical isolate (strain 5, P99), E. cloacae 700323 (strain 6, AmpC), A. baumannii clinical isolate (strain 7, OXA-23, OXA-40), A. baumannii 19606 (strain 8, OXA-24), P. aeruginosa clinical isolate (strain 9, KPC-2), P. aeruginosa 9027 (strain 10, AmpC).

[2] = system: E. cloacae 700323 (strain 6, AmpC); details: Enterobacter cloacae, read-out: Antibacterial activity, MIC, inhibitor Alone
Protocol: as §1, §2

[3] = system: E. cloacae clinical isolate (strain 5, P99); details: Enterobacter cloacae, read-out: Antibacterial activity, MIC, inhibitor Alone
Protocol: as §1, §2

[4] = system: A. baumannii clinical isolate (strain 7, OXA-23, OXA-40); details: Acinetobacter baumannii, read-out: Antibacterial activity, MIC, inhibitor Alone
Protocol: as §1, §2

[5] = system: K. pneumoniae clinical isolate (strain 3, SHV-1); details: Klebsiella pneumoniae, read-out: Antibacterial activity, MIC, inhibitor Alone
Protocol: as §1, §2

[6] = system: E. coli clinical isolate (strain 1, TEM-1); details: Escherichia coli, read-out: Antibacterial activity, MIC, inhibitor Alone
Protocol: as §1, §2

[7] = system: A. baumannii 19606 (strain 8, OXA-24); details: Acinetobacter baumannii, read-out: Antibacterial activity, MIC, inhibitor Alone
Protocol: as §1, §2

[8] = system: K. pneumoniae 700603 (strain 4, KPC-3, TEM-1); details: Klebsiella pneumoniae, read-out: Antibacterial activity, MIC, inhibitor Alone
Protocol: as §1, §2

[9] = system: P. aeruginosa 9027 (strain 10, AmpC); details: Pseudomonas aeruginosa, read-out: Antibacterial activity, MIC, inhibitor Alone
Protocol: as §1, §2

[10] = system: P. aeruginosa clinical isolate (strain 9, KPC-2); details: Pseudomonas aeruginosa, read-out: Antibacterial activity, MIC, inhibitor Alone
Protocol: as §1, §2

[11] = strain 6 (AmpC), compound alone, no antibiotic
[12] = strain 5 (P99), compound alone, no antibiotic
[13] = strain 7 (OXA-23/40), compound alone, no antibiotic
[14] = strain 3 (SHV-1), compound alone, no antibiotic
[15] = strain 1 (TEM-1), compound alone, no antibiotic
[16] = strain 4 (KPC-3, TEM-1), compound alone, no antibiotic
[17] = strain 10 (AmpC), compound alone, no antibiotic
[18] = strain 9 (KPC-2), compound alone, no antibiotic

Measured: MIC

COC(=O)CCS(=O)(=O)NC(=N)[C@@H]1CC[C@@H]2CN1C(=O)N2OS(=O)(=O)[O-].[Na+] [Ex. 4, Sodium (2S,5R)-2-(N-((3-methoxy-3-oxopropyl)sulfonyl)carbamimidoyl)-7-oxo-1,6-diazabicyclo[3.2.1]octan-6-ylsulfate]
> 64 µg/mL: [1] | [2] | [3] | [4] | [5] | [6] | [7] | [8] | [9] | [10]

CS(=O)(=O)NC(=N)[C@@H]1CC[C@@H]2CN1C(=O)N2OS(=O)(=O)[O-].[Na+] [Ex. 5, Sodium (2S,5R)-2-(N-(methylsulfonyl)carbamimidoyl)-7-oxo-1,6-diazabicyclo[3.2.1]octan-6-yl sulfate]
> 64 µg/mL: [1] | [2]; [11] | [3]; [12] | [4]; [13] | [5]; [14] | [6]; [15] | [7] | [8]; [16] | [9]; [17] | [10]; [18]

N=C(NS(=O)(=O)C1CC1)[C@@H]1CC[C@@H]2CN1C(=O)N2OS(=O)(=O)[O-].[Na+] [Ex. 6, Sodium (2S,5R)-2-(N-(cyclopropylsulfonyl)carbamimidoyl)-7-oxo-1,6-diazabicyclo[3.2.1]octan-6-yl sulfate]
> 64 µg/mL: [1] | [2]; [11] | [3]; [12] | [4]; [13] | [5]; [14] | [6]; [15] | [7] | [8]; [16] | [9]; [17] | [10]; [18]

CCS(=O)(=O)NC(=N)[C@@H]1CC[C@@H]2CN1C(=O)N2OS(=O)(=O)[O-].[Na+] [Ex. 8, Sodium (2S,5R)-2-(N-(ethylsulfonyl)carbamimidoyl)-7-oxo-1,6-diazabicyclo[3.2.1]octan-6-yl sulfate]
> 64 µg/mL: [1] | [2]; [11] | [3]; [12] | [4]; [13] | [5]; [14] | [6]; [15] | [7] | [8]; [16] | [9]; [17] | [10]; [18]

Cc1ccc(S(=O)(=O)NC(=N)[C@@H]2CC[C@@H]3CN2C(=O)N3OS(=O)(=O)[O-])cc1.[Na+] [Ex. 9, Sodium (2S,5R)-7-oxo-2-(N-tosylcarbamimidoyl)-1,6-diazabicyclo[3.2.1]octan-6-yl sulfate]
> 64 µg/mL: [1] | [2]; [11] | [3]; [12] | [4]; [13] | [5]; [14] | [6]; [15] | [7] | [8]; [16] | [9]; [17] | [10]; [18]

N=C(NS(=O)(=O)c1ccccn1)[C@@H]1CC[C@@H]2CN1C(=O)N2OS(=O)(=O)O [Ex. 12, (2S,5R)-7-Oxo-2-(N-(pyridin-2-ylsulfonyl)carbamimidoyl)-1,6-diazabicyclo[3.2.1]octan-6-yl hydrogen sulfate]
> 64 µg/mL: [1] | [2]; [11] | [3]; [12] | [4]; [13] | [5]; [14] | [6]; [15] | [7] | [8]; [16] | [9]; [17] | [10]; [18]

N=C(NS(=O)(=O)c1cccnc1)[C@@H]1CC[C@@H]2CN1C(=O)N2OS(=O)(=O)[O-].[Na+] [Ex. 13, Sodium (2S,5R)-7-oxo-2-(N-(pyridin-3-ylsulfonyl)carbamimidoyl)-1,6-diazabicyclo[3.2.1]octan-6-yl sulfate]
> 64 µg/mL: [1] | [2]; [11] | [3]; [12] | [4]; [13] | [5]; [14] | [6]; [15] | [7] | [8]; [16] | [9]; [17] | [10]; [18]

N=C(NS(=O)(=O)C(F)(F)F)[C@@H]1CC[C@@H]2CN1C(=O)N2OS(=O)(=O)O [Ex. 14, (2S,5R)-7-oxo-2-(N-((trifluoromethyl)sulfonyl)carbamimidoyl)-1,6-diazabicyclo[3.2.1]octan-6-yl hydrogen sulfate]
> 64 µg/mL: [1] | [2]; [11] | [3]; [12] | [4]; [13] | [5]; [14] | [6]; [15] | [7] | [8]; [16] | [9]; [17] | [10]; [18]

N=C(NS(=O)(=O)N1CCC1)[C@@H]1CC[C@@H]2CN1C(=O)N2OS(=O)(=O)O [Ex. 15, (2S,5R)-2-(N-(azetidin-1-ylsulfonyl)carbamimidoyl)-7-oxo-1,6-diazabicyclo[3.2.1]octan-6-yl hydrogen sulfate]
> 64 µg/mL: [1] | [2] | [3] | [4] | [5] | [6] | [7] | [8] | [9] | [10]

N=C(NS(N)(=O)=O)[C@@H]1CC[C@@H]2CN1C(=O)N2OS(=O)(=O)O [Ex. 16, (2S,5R)-7-oxo-2-(N-Sulfamoylcarbamimidoyl)-1,6-diazabicyclo[3.2.1]octan-6-yl hydrogen sulfate]
> 64 µg/mL: [1] | [2]; [11] | [3]; [12] | [4]; [13] | [5]; [14] | [6]; [15] | [7] | [8]; [16] | [9]; [17] | [10]; [18]

CNS(=O)(=O)NC(=N)[C@@H]1CC[C@@H]2CN1C(=O)N2OS(=O)(=O)O [Ex. 17, (2S,5R)-2-(N—(N-Methylsulfamoyl)carbamimidoyl)-7-oxo-1,6-diazabicyclo[3.2.1]octan-6-yl hydrogen sulfate]
> 64 µg/mL: [1] | [2] | [3] | [4] | [5] | [6] | [7] | [8] | [9] | [10]

CCNS(=O)(=O)NC(=N)[C@@H]1CC[C@@H]2CN1C(=O)N2OS(=O)(=O)O [Ex. 18, (2S,5R)-2-(N—(N-Ethylsulfamoyl)carbamimidoyl)-7-oxo-1,6-diazabicyclo[3.2.1]octan-6-yl hydrogen sulfate]
> 64 µg/mL: [1] | [2]; [11] | [3]; [12] | [4]; [13] | [5]; [14] | [6]; [15] | [7] | [8]; [16] | [9]; [17] | [10]; [18]

Cn1ccnc1S(=O)(=O)NC(=N)[C@@H]1CC[C@@H]2CN1C(=O)N2OS(=O)(=O)O [Ex. 19, (2S,5R)-2-(N-((1-methyl-1H-imidazol-2-yl)sulfonyl)carbamimidoyl)-7-oxo-1,6-diazabicyclo[3.2.1]octan-6-yl hydrogen sulfate]
> 64 µg/mL: [1] | [2]; [11] | [3]; [12] | [4]; [13] | [5]; [14] | [6]; [15] | [7] | [8]; [16] | [9]; [17] | [10]; [18]
